Measured values: patent US4176009A, “Method of measuring collagenase activity” (Ajinomoto Co., Inc., priority 1976, dated 1979)
Non-standard residues stand in square brackets, D forms with d. Residues, ends and D or L forms follow the SMILES beside them. *: point of attachment. Dnp = O=[N+]([O-])c1ccc(*)c([N+](=O)[O-])c1

Experiments:
[1] = test system: non-specific peptidases; experiment: Rate of hydrolysis of DNP-peptide derivatives by non-specific peptidases (Example 15); format: biochemical, human; conditions: 5×10^-4 M peptide, 37° C., pH 7.5; average of three experiments; extraction with ethyl acetate (* compounds: ethyl acetate-n-butanol 1:0.15)
Procedure: (§1) Purified collagenase used in Examples was prepared from cultured media of tadpole skin explants as described in Biochem. Biophs. Acta, 263 564(1972), and non-specific peptidases were prepared by subjecting 5 ml of fresh adult human serum to chromatography on a calibrated Sephadex G-200 superfine gel column equilibrated with 0.05 M Tris-HCl buffer, pH 7.5, containing 0.15 M NaCl and 5 mM CaCl2, and gathering the effluent fractions corresponding to molecular weights of 100,000-180,000.
(§2) Various DNP-peptide derivatives were dissolved in 0.05 M Tris-HCl buffer, pH 7.5, containing 0.15 M NaCl, 5 mM CaCl2 and 0.02% bovine serum albumin to make a concentration of 5×10^-4 M. 0.1 ml Each of the peptide derivative solutions was mixed with an equal volume of purified collagenase (6.2 U/ml) or non-specific peptidases and incubated for various periods at 37° C. After stopping the enzyme reaction by adding 0.5 ml of 1 M HCl, the DNP-peptide fragments released were extracted by vigorous shaking with 1 ml of ethylacetate or ethyl acetate-n-butanol (1:0.15, V/V), and worked up as in Example 12.

[2] = test system: purified collagenase; experiment: Rate of hydrolysis of DNP-peptide derivatives by purified collagenase (Example 15); format: biochemical, tadpole; conditions: 5×10^-4 M peptide, purified collagenase 6.2 U/ml, 37° C., pH 7.5; average of three experiments; extraction with ethyl acetate (* compounds: ethyl acetate-n-butanol 1:0.15)
Procedure: as §1, §2

[3] = test system: collagenase in synovial fluids; experiment: Hydrolysis of substrate solutions by synovial fluids from patients; collagenase activity (Example 14); format: biochemical, human; conditions: for OD365/0.1 ml ohr: 0 hr; for OD365/0.1 ml 2hr: 2 hr at 37° C.; for OD365/0.1 ml increment: 2 hr minus 0 hr
Procedure: (§3) The DNP-peptide fragments released were extracted by vigorous shaking with 1 ml of ethyl acetate-n-butanol (1:0.15, V/V) followed by centrifugation at 3,000-5,000 rpm and room temperature for 10 minutes to separate two layers completely. The degree of hydrolysis was determined by measuring the absorbance of the organic layer at 365 nm.
0.2 ml Each of the substrate (solutions(a) and (b) prepared in Example 12 was mixed with 0.1 ml of synovial fluids from patients with osteoarthritis and rheumatoid arthritis, and incubated for 2 hours at 37° C. After stopping the enzyme reaction by adding 0.5 ml of 1 M hydrochloric acid, the DNP-peptide fragments released were extracted by vigorous shaking with 2 ml of ethyl acetate-n-butanol (1:0.15, V/V), and worked up as in Example 12 to obtain the collagenase activities.

[4] = test system: purified collagenase; experiment: Time course of hydrolysis of substrate solutions by purified collagenase (Example 12); format: biochemical, tadpole; conditions: for 00365 (absorbance of the organic layer at 365 nm): pH 7.5
Procedure: as §1
DNP-Pro-Gln-Gly-Ile-Ala-Gly-Gln-D-Arg-OH.CH3 COOH.H2 O (4.96 mg) was neutralized with 0.1N sodium hydroxide, and dissolved in 0.05M tris-HCl buffer, pH 7.5, containing 0.15 M NaCl and 5 m MCaCl2 to make 10 ml of the substrate solution (a) having a concentration of 5×10^-4 M. The substrate solution (b) was also prepared similarly by using DNP-Gln-Gly-Ile-Ala-Gly-Gln-D-Arg-OH.CH3 COOH.H2 O (4.48 mg).
0.9 ml Each of the substrate solutions was diluted with 0.88 ml of 0.05M tris-HCl buffer, pH 7.5, containing 0.15 M NaCl, and 5 m MCaCl2. The resulting solution was mixed with 0.02 ml of purified collagenase, and incubated. 0.2 ml Aliquots of the reaction mixture were taken out at 0, 10, 20, 40, 60 and 120 minutes, and mixed with 0.5 ml of 1M hydrochloric acid for stopping the enzyme reaction.
as §3

[5] = synovial fluid of case five, RA
[6] = synovial fluid of case four, OA
[7] = synovial fluid of case three, RA

CC(C)C[C@H](NC(=O)CNC(=O)[C@H](CCC(N)=O)NC(=O)[C@@H]1CCCN1c1ccc([N+](=O)[O-])cc1[N+](=O)[O-])C(=O)N[C@@H](C)C(=O)NCC(=O)N[C@@H](CCC(N)=O)C(=O)N[C@H](CCCNC(=N)N)C(=O)O [Example 4, DNP-Pro-Gln-Gly-Leu-Ala-Gly-Gln-D-Arg-OH] (Dnp-PQGLAGQ[dR]-OH)
Rate of hydrolysis by non-specific peptidases [1]: 0.031 OD365/hr | Rate of hydrolysis by Collagenase [2]: 0.243 OD365/hr

CC[C@H](C)[C@H](NC(=O)CNC(=O)[C@H](C)NC(=O)[C@@H]1CCCN1c1ccc([N+](=O)[O-])cc1[N+](=O)[O-])C(=O)N[C@@H](C)C(=O)NCC(=O)N[C@@H](CCC(N)=O)C(=O)N[C@H](CCCNC(=N)N)C(=O)O [Example 5, DNP-Pro-Ala-Gly-Ile-Ala-Gly-Gln-D-Arg-OH] (Dnp-PAGIAGQ[dR]-OH)
Rate of hydrolysis by non-specific peptidases [1]: 0.010 OD365/hr | Rate of hydrolysis by Collagenase [2]: 0.070 OD365/hr

CC(C)C[C@H](NC(=O)CNC(=O)[C@H](C)NC(=O)[C@@H]1CCCN1c1ccc([N+](=O)[O-])cc1[N+](=O)[O-])C(=O)N[C@@H](C)C(=O)NCC(=O)N[C@@H](CCC(N)=O)C(=O)N[C@H](CCCNC(=N)N)C(=O)O [Example 6, DNP-Pro-Ala-Gly-Leu-Ala-Gly-Gln-D-Arg-OH] (Dnp-PAGLAGQ[dR]-OH)
Rate of hydrolysis by non-specific peptidases [1]: 0.051 OD365/hr | Rate of hydrolysis by Collagenase [2]: 0.120 OD365/hr

CC[C@H](C)[C@H](NC(=O)CNC(=O)[C@H](CCC(N)=O)NC(=O)[C@@H]1CCCN1c1ccc([N+](=O)[O-])cc1[N+](=O)[O-])C(=O)N[C@@H](C)C(=O)NCC(=O)N[C@H](CCCNC(=N)N)C(=O)O [Example 8, DNP-Pro-Gln-Gly-Ile-Ala-Gly-D-Arg-OH] (Dnp-PQGIAG[dR]-OH)
Rate of hydrolysis by non-specific peptidases [1]: 0.021 OD365/hr | Rate of hydrolysis by Collagenase [2]: 0.157 OD365/hr

CC[C@H](C)[C@H](NC(=O)CNC(=O)[C@H](CC(C)C)NC(=O)[C@@H]1CCCN1c1ccc([N+](=O)[O-])cc1[N+](=O)[O-])C(=O)N[C@@H](C)C(=O)NCC(=O)N[C@@H](CCC(N)=O)C(=O)N[C@H](CCCNC(=N)N)C(=O)O [Example 9, DNP-Pro-Leu-Gly-Ile-Ala-Gly-Gln-D-Arg-OH] (Dnp-PLGIAGQ[dR]-OH)
Rate of hydrolysis by non-specific peptidases [1]: 0 OD365/hr | Rate of hydrolysis by Collagenase [2]: 0.276 OD365/hr

CC[C@H](C)[C@H](NC(=O)CNC(=O)[C@H](CCC(N)=O)Nc1ccc([N+](=O)[O-])cc1[N+](=O)[O-])C(=O)N[C@@H](C)C(=O)NCC(=O)N[C@@H](CCC(N)=O)C(=O)N[C@H](CCCNC(=N)N)C(=O)O [Example 10, DNP-Gln-Gly-Ile-Ala-Gly-Gln-D-Arg-OH]
Rate of hydrolysis by non-specific peptidases [1]: 0 OD365/hr | OD365/0.1 ml ohr [3, 5]: 0.045 OD365/0.1 ml | OD365/0.1 ml 2hr [3, 5]: 0.045 OD365/0.1 ml | OD365/0.1 ml increment [3, 5]: 0.000 OD365/0.1 ml | OD365/0.1 ml ohr [3, 6]: 0.038 OD365/0.1 ml | OD365/0.1 ml 2hr [3, 6]: 0.040 OD365/0.1 ml | OD365/0.1 ml increment [3, 6]: 0.002 OD365/0.1 ml | OD365/0.1 ml ohr ([3]; synovial fluid of case one, RA): 0.049 OD365/0.1 ml | OD365/0.1 ml 2hr ([3]; synovial fluid of case one, RA): 0.046 OD365/0.1 ml | OD365/0.1 ml increment ([3]; synovial fluid of case one, RA): 0 OD365/0.1 ml | OD365/0.1 ml ohr ([3]; synovial fluid of case six, OA): 0.050 OD365/0.1 ml | OD365/0.1 ml 2hr ([3]; synovial fluid of case six, OA): 0.041 OD365/0.1 ml | OD365/0.1 ml increment ([3]; synovial fluid of case six, OA): 0 OD365/0.1 ml | OD365/0.1 ml ohr [3, 7]: 0.050 OD365/0.1 ml | OD365/0.1 ml 2hr [3, 7]: 0.051 OD365/0.1 ml | OD365/0.1 ml increment [3, 7]: 0.001 OD365/0.1 ml | OD365/0.1 ml ohr ([3]; synovial fluid of case two, OA): 0.035 OD365/0.1 ml | OD365/0.1 ml 2hr ([3]; synovial fluid of case two, OA): 0.038 OD365/0.1 ml | OD365/0.1 ml increment ([3]; synovial fluid of case two, OA): 0.003 OD365/0.1 ml | 00365 (absorbance of the organic layer at 365 nm) ([4]; incubation time 0 min): 0.027 | increment of 00365 ([4]; incubation time 10 min): 0 | 00365 (absorbance of the organic layer at 365 nm) ([4]; incubation time 10 min): 0.027 | increment of 00365 ([4]; incubation time 20 min): 0 | 00365 (absorbance of the organic layer at 365 nm) ([4]; incubation time 20 min): 0.027 | increment of 00365 ([4]; incubation time 40 min): 0.002 | 00365 (absorbance of the organic layer at 365 nm) ([4]; incubation time 40 min): 0.030 | increment of 00365 ([4]; incubation time 60 min): 0.002 | 00365 (absorbance of the organic layer at 365 nm) ([4]; incubation time 60 min): 0.029 | increment of 00365 ([4]; incubation time 120 min): 0 | 00365 (absorbance of the organic layer at 365 nm) ([4]; incubation time 120 min): 0.027 | Rate of hydrolysis by Collagenase [2]: 0 OD365/hr

CC[C@H](C)[C@H](NC(=O)CNC(=O)[C@H](C)Nc1ccc([N+](=O)[O-])cc1[N+](=O)[O-])C(=O)N[C@@H](C)C(=O)NCC(=O)N[C@@H](CCC(N)=O)C(=O)N[C@H](CCCNC(=N)N)C(=O)O [Example 11, DNP-Ala-Gly-Ile-Ala-Gly-Gln-D-Arg-OH]
Rate of hydrolysis by non-specific peptidases [1]: 0.016 OD365/hr | Rate of hydrolysis by Collagenase [2]: 0 OD365/hr
